Tested on: 22RV1 prostate cancer cells
Assay: Cell viability of prostate cancer 22RV1 cells after 72 hours treatment
Format: cell-based
Details: Homo sapiens

Row | Compound | viability at 2.5 µM | viability at 5 µM | viability at 10 µM
1 | CN1CCN(c2ccc(-c3nc4cc(C(CC(N)=O)NCC5CCCCC5)ccc4n3Cc3ccc(OC(F)(F)F)cc3)cc2)CC1 (stereo not drawn) [LLS90, 3-((cyclohexylmethyl)amino)-3-(2-(4-(4-methylpiperazin-1-yl)phenyl)-1-(4-(trifluoromethoxy)benzyl)-1H-benzo[d]imidazol-5-yl)propanamide] | 1% | 0% | 0%
2 | NC(=O)CC(NCc1ccc(Cl)c(Cl)c1)c1ccc2c(c1)nc(-c1ccc(N(CCO)CCO)cc1)n2CCc1ccc(OC(F)(F)F)cc1 (stereo not drawn) [LLS100] | 99% | 28% | 0%
3 | NC(=O)CC(NCC1CCCCC1)c1ccc2c(c1)nc(-c1ccc(N3CCOCC3)cc1)n2Cc1ccc(Br)cc1 (stereo not drawn) [LLS94, 3-(1-(4-bromobenzyl)-2-(4-morpholinophenyl)-1H-benzo[d]imidazol-5-yl)-3-((cyclohexylmethyl)amino)propanamide] | 3% | 0% | 0%
4 | NC(=O)CC(NCc1ccncc1)c1ccc2c(c1)nc(-c1ccc(N(CCO)CCO)cc1)n2Cc1ccc(Cl)c(Cl)c1 (stereo not drawn) [LLS84, 3-(2-(4-(bis(2-hydroxyethyl)amino)phenyl)-1-(3,4-dichlorobenzyl)-1H-benzo[d]imidazol-5-yl)-3-((pyridin-4-ylmethyl)amino)propanamide] | 119% | 109% | 138%
5 | NC(=O)CC(NCC1CCCCC1)c1ccc2c(c1)nc(-c1cccc(OCCN3CCOCC3)c1)n2Cc1ccc(OC(F)(F)F)cc1 (stereo not drawn) [LLS91, 3-((cyclohexylmethyl)amino)-3-(2-(3-(2-morpholinoethoxy)phenyl)-1-(4-(trifluoromethoxy)benzyl)-1H-benzo[d]imidazol-5-yl)propanamide] | 33% | 7% | 0%
6 | NC(=O)CC(NCC1CCCCC1)c1ccc2c(c1)nc(-c1ccc(N3CCOCC3)cc1)n2Cc1cccc2ccccc12 (stereo not drawn) [LLS103, 3-((cyclohexylmethyl)amino)-3-(2-(4-morpholinophenyl)-1-(naphthalen-1-ylmethyl)-1H-benzo[d]imidazol-5-yl)propanamide] | 1% | 0% | 0%
7 | NC(=O)CC(NCC1CCCCC1)c1ccc2c(c1)nc(-c1ccc(N3CCOCC3)cc1)n2Cc1ccc2c(c1)OCO2 (stereo not drawn) [LLS107, 3-(1-(benzo[d][1,3]dioxol-5-ylmethyl)-2-(4-morpholinophenyl)-1H-benzo[d]imidazol-5-yl)-3-((cyclohexylmethyl)amino)propanamide] | 67% | 4% | 0%
8 | CN1CCN(c2ccc(-c3nc4cc(C(CC(N)=O)NCc5ccc(Cl)c(Cl)c5)ccc4n3Cc3ccc(Cl)c(Cl)c3)cc2)CC1 (stereo not drawn) [LLS86, 3-(1-(3,4-dichlorobenzyl)-2-(4-(4-methylpiperazin-1-yl)phenyl)-1H-benzo[d]imidazol-5-yl)-3-((3,4-dichlorobenzyl)amino)propanamide] | 45% | 0% | 0%
9 | NC(=O)CC(NCc1ccc(Cl)c(Cl)c1)c1ccc2c(c1)nc(-c1ccc(N(CCO)CCO)cc1)n2CCc1ccccn1 (stereo not drawn) [LLS108, 3-(2-(4-(bis(2-hydroxyethyl)amino)phenyl)-1-(2-(pyridin-2-yl)ethyl)-1H-benzo[d]imidazol-5-yl)-3-((3,4-dichlorobenzyl)amino)propanamide] | 89% | 100% | 101%
10 | NC(=O)CC(NCc1ccc(Cl)c(Cl)c1)c1ccc2c(c1)nc(-c1ccc(N(CCO)CCO)cc1)n2CC1CCCCC1 (stereo not drawn) [LLS104, 3-(2-(4-(bis(2-hydroxyethyl)amino)phenyl)-1-(cyclohexylmethyl)-1H-benzo[d]imidazol-5-yl)-3-((3,4-dichlorobenzyl)amino)propanamide] | 82% | 31% | 1%
11 | NC(=O)CC(NCC1CCCCC1)c1ccc2c(c1)nc(-c1ccc(N(CCO)CCO)cc1)n2Cc1ccc(Cl)c(Cl)c1 (stereo not drawn) [LLS101, 3-(2-(4-(bis(2-hydroxyethyl)amino)phenyl)-1-(3,4-dichlorobenzyl)-1H-benzo[d]imidazol-5-yl)-3-((cyclohexylmethyl)amino)propanamide] | 20% | 1% | 0%
12 | NC(=O)CC(NCC1CCCCC1)c1ccc2c(c1)nc(-c1ccncc1)n2Cc1ccc(OC(F)(F)F)cc1 (stereo not drawn) [LLS88, 3-((cyclohexylmethyl)amino)-3-(2-(pyridin-4-yl)-1-(4-(trifluoromethoxy)benzyl)-1H-benzo[d]imidazol-5-yl)propanamide] | 75% | 4% | 0%
13 | NC(=O)CC(NCc1ccc(Cl)c(Cl)c1)c1ccc2c(c1)nc(-c1ccc(N(CCO)CCO)cc1)n2Cc1ccc(C(F)(F)F)cc1 (stereo not drawn) [LLS92, 3-(2-(4-(bis(2-hydroxyethyl)amino)phenyl)-1-(4-(trifluoromethyl)benzyl)-1H-benzo[d]imidazol-5-yl)-3-((3,4-dichlorobenzyl)amino)propanamide] | 74% | 15% | 1%
14 | NC(=O)CC(NCc1ccc(F)c(F)c1)c1ccc2c(c1)nc(-c1ccc(N(CCO)CCO)cc1)n2Cc1ccc(Cl)c(Cl)c1 (stereo not drawn) [LLS83, 3-(2-(4-(bis(2-hydroxyethyl)amino)phenyl)-1-(3,4-dichlorobenzyl)-1H-benzo[d]imidazol-5-yl)-3-((3,4-difluorobenzyl)amino)propanamide] | 20% | 1% | 0%
15 | NC(=O)CC(NCc1ccc(Cl)c(Cl)c1)c1ccc2c(c1)nc(-c1cccc(OCCN3CCOCC3)c1)n2Cc1ccc(Cl)c(Cl)c1 (stereo not drawn) [LLS87, 3-(1-(3,4-dichlorobenzyl)-2-(3-(2-morpholinoethoxy)phenyl)-1H-benzo[d]imidazol-5-yl)-3-((3,4-dichlorobenzyl)amino)propanamide] | 76% | 56% | 0%
16 | NC(=O)CC(NCC1CCCCC1)c1ccc2c(c1)nc(-c1ccc(N3CCOCC3)cc1)n2Cc1ccc(Cl)c(C(F)(F)F)c1 (stereo not drawn) [LLS98, 3-(1-(4-chloro-3-(trifluoromethyl)benzyl)-2-(4-morpholinophenyl)-1H-benzo[d]imidazol-5-yl)-3-((cyclohexylmethyl)amino)propanamide] | 40% | 0% | 0%
17 | NC(=O)CC(NCC1CCCCC1)c1ccc2c(c1)nc(-c1ccc(N3CCOCC3)cc1)n2CCc1ccccn1 (stereo not drawn) [LLS109, 3-((cyclohexylmethyl)amino)-3-(2-(4-morpholinophenyl)-1-(2-(pyridin-2-yl)ethyl)-1H-benzo[d]imidazol-5-yl)propanamide] | 98% | 88% | 88%
18 | NC(=O)CC(NCc1ccc(Cl)c(Cl)c1)c1ccc2c(c1)nc(-c1ccc(N(CCO)CCO)cc1)n2Cc1cccc2ccccc12 (stereo not drawn) [LLS102, 3-(2-(4-(bis(2-hydroxyethyl)amino)phenyl)-1-(naphthalen-1-ylmethyl)-1H-benzo[d]imidazol-5-yl)-3-((3,4-dichlorobenzyl)amino)propanamide] | 23% | 0% | 0%

— patent US10844052B2, “LLS compounds for treatment of cancer” (THE REGENTS OF THE UNIVERSITY OF CALIFORNIA, priority 2016, dated 2020)
